Test results: ChEMBL document CHEMBL5728983, “Macrocyclic derivative of pyrazol[3,4-d]pyrimidin-3-one, pharmaceutical composition and use thereof” (2022)

Target: Wee1-like protein kinase (Homo sapiens, UniProt P30291)
Test: Enzymatic Activity of Wee1: In the present disclosure, Wee1 enzyme catalysis assay was carried out using the ATP-Glo Max kinase luminescence detection kit (Promega). Kinase activity was assessed by quantitative detection of the amount of ATP retained in the solution following the kinase reaction. The luminescent signal in the assay is proportional to the amount of ATP and inversely proportional to the kinase activity. The concentration of the compound in the assay ranged from 0.5 nM to 30 μM. The compound was dissolved in 10% DMSO, and 5 μL of the solution was added to 50 μL of the reaction, and the concentration of DMSO in the final reaction was 1%. The reaction was carried out at 30° C. for 50 minutes. 40 mM trishydroxymetyl aminomethane, pH 7.4, 10 mM MgCl2, 0.1 mg/ml BSA, 2 mM DTT, 0.1 mg/ml Poly (Lys, Tyr) substrate, 10 μM ATP and Wee1 were contained in the reaction mixture. After the enzymatic reaction, 50 μL of ATP-Glo Max kinase luminescence detection assay solution (Promega) was added and incubated for 15 minutes at room temperature. The luminescent signal was measured using a microplate reader. In some assays, a known Wee1 inhibitor was added as a positive control. Luminance data was analyzed using Graphpad software.

Wee1-like protein kinase, sequence (P30291 whole entry): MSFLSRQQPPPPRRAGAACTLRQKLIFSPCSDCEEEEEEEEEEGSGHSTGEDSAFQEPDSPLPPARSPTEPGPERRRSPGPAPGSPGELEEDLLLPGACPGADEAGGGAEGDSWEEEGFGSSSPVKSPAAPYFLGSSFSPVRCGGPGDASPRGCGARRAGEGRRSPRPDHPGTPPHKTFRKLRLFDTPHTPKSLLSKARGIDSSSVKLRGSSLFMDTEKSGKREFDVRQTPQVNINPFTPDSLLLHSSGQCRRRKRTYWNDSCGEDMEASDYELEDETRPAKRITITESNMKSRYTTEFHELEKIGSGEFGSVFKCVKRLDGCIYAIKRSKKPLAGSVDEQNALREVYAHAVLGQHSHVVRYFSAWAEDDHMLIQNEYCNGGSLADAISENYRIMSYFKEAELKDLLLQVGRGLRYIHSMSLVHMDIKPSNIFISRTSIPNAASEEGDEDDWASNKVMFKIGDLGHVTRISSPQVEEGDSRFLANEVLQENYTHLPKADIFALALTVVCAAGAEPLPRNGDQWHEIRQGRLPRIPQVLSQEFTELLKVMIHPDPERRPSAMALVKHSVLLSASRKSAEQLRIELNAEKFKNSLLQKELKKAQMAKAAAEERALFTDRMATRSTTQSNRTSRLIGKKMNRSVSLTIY

Row | Structure (SMILES) | IC50
1 | CC(C)N1Cc2cc(Nc3ncc4c(=O)n5n(c4n3)-c3ccc4c(n3)N(CCC/C=C\C5)C(=O)CO4)ccc2C2(CC2)C1 | 0.0104 µM
2 | CC(C)N1Cc2ccc(Nc3ncc4c(=O)n5n(c4n3)-c3ccc4c(n3)N(CCC/C=C\C5)C(=O)CO4)cc2C2(CC2)C1 | 0.0102 µM
